Assay results reported in patent US20260097111A1, “ETHER LIPIDS FOR HYPERACTIVATION OF MAMMALIAN DENDRITIC CELLS” (priority 2022, published 2026).

Columns and labels:
[1] = test system: human moDCs and autologous memory CD4+ T cells; experiment: moDC and memory CD4+ T cell coculture, cytokine secretion and viability; format: cell-based; details: for IL-1β: MCC950 10 μM or anti-IL-1β 10 μg/mL added to R848+DGP where named, FIG. 36A
Method: Monocyte Isolation, Storage, and Differentiation into moDC.
Memory CD4+ T Cell Isolation. The CD14− fraction of the leukapheresis product was collected and used for further isolation of memory CD4+ T cells. First, approximately 5×10^9 total nucleated cells or less of the blood product were pelleted at 200×g for 10 min. The cells were resuspended in two 50 mL conical tubes each containing 25 mL in volume. Cells were then incubated with microbeads targeting red blood cells and granulocytes at 4° C. for 15 min. Cells were loaded on equilibrated MultiMACS columns using the “Deplete” program. Columns were washed twice with separation buffer and the flow-through of peripheral blood mononuclear cells (PBMCs) were collected and counted. The Memory CD4+ T Cell Isolation Kit from Miltenyi was then used to isolate memory CD4+ T cells from the PBMCs. After following the manufacturer's protocol for antibody and microbead incubations, cells were loaded onto equilibrated MultiMACS columns using the “Deplete” program. After 2 column washes using separation buffer, the negative fraction was collected and counted. An aliquot was stained to confirm the purity of the memory CD4 T cell population. […] Vials were placed in CoolCell freezing containers and placed in a −80° C. freezer for no longer than 1 week. Frozen cells were transferred for long-term storage to the vapor phase of a liquid nitrogen freezer until use.
Treatments of Cells For Analysis of Cytokine Secretion. Human moDCs were plated at 5×10^4 cells/well in 96-well U-bottom tissue culture plates in R10++ media by adding 50 μL of cells per well. To each well, 50 μL of memory CD4 T cells at 2.5×10^6 cells/mL was added. For control conditions where only moDC or only CD4 T cells were plated, the missing cells were replaced with an equivalent volume of R10++ media.
Lyophilized R848 stocks were prepared as described above and frozen at −80° C. for storage. An aliquot of frozen R848 was thawed and further diluted to 22.8 μM in R10++ (8 μg/mL R848). A portion of diluted R848 was combined with MCC950 to reach a concentration of 80 μM MCC950. Another portion of diluted R848 was combined with anti-IL-1β blocking antibody to reach a concentration of 80 μg/mL anti-IL-1β. Cell cultures received 25 μL of these mixes depending on desired treatment. For wells not receiving R848 treatment, an equivalent volume of R10++ media was added to wells. For these three chemicals, final concentrations in the wells were 2.85 μM R848, 10 μM MCC950, and 10 μg/mL anti-IL-1β.
A4.44% solution of KP407 dissolved in sterile, distilled water was prepared at a temperature of 4° C. DGP from powder was prepared by adding KP407 solution to lipid. […] Sterile 10×PBS was added to the solution resulting in a 1×PBS concentration. […]

[2] = Serum chemokines and cytokines after SC injection; format: in vivo, mice; details: SC injection; 2, 24 and 48 hours post injection; FIG. 49
Method: Lipid Preparation. […] Lipids were used for chemical injections or DC treatment within one hour of their preparation.
Subcutaneous (SC) Injection. Mice were placed under Isoflurane for a few min for anesthesia. Tubes containing the chemicals were vortexed for 30 seconds, then loaded with a 1 mL Sub-Q syringe.
Blood Collection. Mice were placed under Isoflurane for approximately 10 min for anesthesia. Using a 21G needle, mice were gently poked through the skin to the submandibular space to induce bleeding. Five-Six drops were collected in a mini collect K2EDTA blood collection tube. Blood samples were transported back to Corner Therapeutics lab on ice. The blood was then centrifuged at 1500×g for 5 min. After centrifugation, blood was collected into a 96-well round bottom plate and stored at −80° C.
Measurement of Serum Chemokines and Cytokines. Secreted cytokines were measured in the supernatant by cytokine bead array using the LEGENDplex™ Mouse Murine Proinflammatory Chemokine, Murine Cytokine Release Syndrome Legendplex and LEGENDplex™ Mouse Cytokine Panel 2 (Biolegend) according to the manufacturer's protocol. Data were collected using a Quanteon Novocyte flow cytometer and analyzed using the cloud-based software provided by Biolegend.

SMILES	production of IL-4, IL5, and IL-13 ([1]; coculture, 2 days, FIG. 38A-C)	IL-1β ([1]; coculture, 2 days)	cytokine and chemokine release in the serum [2]	IFNγ ([1]; coculture with anti-CD3, 2 days, MCC950 or anti-IL-1β added to R848+DGP where named, FIG. 37A)
CCCCCCCCCCCCCCCCCCCCCCOC[C@@H](O)COP(=O)(O)O [Compound 2, 1-docosyl-sn-glycerol-3-phosphate]	not elevated compared to unstimulated conditions	minimal IL-1β was detected	unable to induce any cytokine or chemokine release in the serum at any timepoint	
CC(C)(O)c1coc(S(=O)(=O)NC(=O)Nc2c3c(cc4c2CCC4)CCC3)c1 [MCC950, reference compound]		IL-1β was significantly reduced		IFNγ production was significantly reduced
